This is an account of results in patent US20240197891A1, “PHARMACEUTICAL COMPOSITIONS COMPRISING POH DERIVATIVES” (UNIVERSITY OF SOUTHERN CALIFORNIA, priority 2021, published 2024).

pIC50: −log10 of the molar value.

The test system of one series is UV-B exposed skin. The experiment in a line: UV-B induced skin damage in SKH-1 hairless mice. The series is classed as in vivo, mouse. Conditions: topical post exposure. The protocol:
(§1) FIG. 23 illustrates the simulation of sunlight by irradiation with UVB lamps (310 nm). The irradiation was conducted in a phototoxicity testing chamber and fitted with a UV-B lamp providing with a spectral output of approximately 310 nm. The source of UVR was a short-wavelength UV lamp (VWR. Radnor, PA). The peak spectral output of this lamp was approximately 310 nm, with no energy detectable below 260 nm, approximately 0.6% between 260 and 280 nm (UV-C), 72.7% between 280 and 320 nm (UV-B), and 26.7% between 320 and 400 nm (UV-A). Radiation dosage of UV-B per irradiation was set at 54 mJ/cm^2 for the first week, 72 mJ/cm^2 for the second week, 90 mJ/cm^2 for the third week, and 108 mJ/cm^2 for the remaining weeks, as confirmed by a UV monitor. Each irradiation event was 10 minutes long.
POH-LA conjugate, linoleic acid, POH, and the additive combination of linoleic acid and POH were each suspended in glycerol:ethanol (90:10 vol/vol) to a final concentration of 10 nM with 50 μL and applied to each SKH-1 hairless mouse post UV-B exposure for treatment. The sunblock mouse was gently wiped on the exposure area with the sunblock towelette. […] In FIG. 23B, the mice were treated with the glycerol:ethanol vehicle only. In FIG. 23C, the mice were treated with POH. In FIG. 23D, the mice were treated with linoleic acid. In FIG. 23E, the mice were treated with an mixture of linoleic acid and POH. In FIG. 23F, the mice were treated with POH-LA conjugate. In FIG. 23G, the mice were treated with sunblock. The application of POH-LA conjugate to UV-B exposed tissue limits the amount of observable skin damage as compared to the untreated control (B) or the individual components of POH-LA conjugate either alone (POH—C and LA—D), in mixture (E), or with sunblock (G).
as §1, with “FIGS. 24A-D illustrates the” for “FIG. 23 illustrates the”, “UV lamp (VWR, Radnor, PA).” for “UV lamp (VWR. Radnor, PA).”, “second week, and 90 mJ/cm^2” for “second week, 90 mJ/cm^2”, “third week, as confirmed” for “third week, and 108 mJ/cm^2 for the remaining weeks, as confirmed”, “UV monitor.” for “UV monitor. Each irradiation event was 10 minutes long.”
POH-LA conjugate (FIG. 24A), linoleic acid (FIG. 24B), POH (FIG. 24C), and the additive combination of linoleic acid and POH (FIG. 24D) were each suspended in glycerol:ethanol (90:10 vol/vol) to a final concentration of 10 nM with 50 μL applied to each mouse post UV-B exposure for treatment. The application of POH-LA conjugate to UV-B exposed tissue limits the amount of observable skin damage as compared the individual components of POH-LA conjugate either alone or in mixture.
as §1, with “This example” for “FIG. 23”, “nm)” for “nm). The irradiation”, “(VWR,” for “(VWR.”, “monitor.” for “monitor. Each irradiation event was 10 minutes long.”
POH-LA conjugate, linoleic acid, POH, and the additive combination of linoleic acid and POH were each suspended in glycerol:ethanol (90:10 vol/vol) to a final concentration of 10 nM with 50 μL applied to each mouse post UV-B exposure for treatment. […]

Another series concerns IL-1β. The experiment in a line: Serum IL-1β following UV exposure. It counts as in vivo, mouse. The protocol:
(§2) SKH-1 hairless mice were treated with 10 mg/kg POH-LA conjugate freshly prepared daily. The POH-LA conjugate was formulated in glycerol:ethanol (90:10) while the control animals received the glycerol:ethanol vehicle only or the commercially available sunblock (Well & Good Sun Protection Wipes SPF 15). Additional test groups were treated with POH formulated in the glycerol:ethanol vehicle or linoleic acid formulated in the glycerol:ethanol vehicle. 50 μL of each formulation was placed on a area 1 cm^2 area that was exposed to the UV light. The mice were treated with their respective formulations after exposure to the UV light. In FIG. 22A, the mouse was treated with sunblock. In FIG. 22B, the mouse was treated with POH. In FIG. 22C, the mouse was treated with linoleic acid. In FIG. 22D, the mouse was treated with POH-LA conjugate. In FIG. 22D, the mouse was treated with the glycerol:ethanol vehicle only. The POH-LA conjugate, POH or linoleic acid solutions were gently spread on the skin surface and allowed to air dry. The sunblock mouse was gently wiped on the exposure area with the sunblock towelette. This exposure and treatment went on for a maximum of 10 weeks. Throughout the experimental period the animals were photographed and weighed. At the end of the experimental period the mice were photographed and euthanized, followed by skin and blood collection. Blood was analyzed for markers of inflammation and DNA recovered from the exposed area of the skin and analyzed for markers of DNA damage.
(§3) Furthermore, blood samples were taken from each mouse 4 hours after the last cutaneous treatment. About 0.5 mL of blood was collected by cardiac puncture […]. Serum was aliquoted in Eppendorf tubes and store at −80° C. as preparation for cytokine analyses. […]
(§4) Mice were treated with 10 mg/kg POH-LA conjugate freshly prepared daily. […] Blood was analyzed for markers of inflammation and DNA recovered from the exposed area of the skin and analyzed for markers of DNA damage.

Another series deals with IL-6. The experiment in a line: Serum IL-6 following UV exposure. It counts as in vivo, mouse. On the procedure: as §2, with “In FIG. 22D, the mouse was treated with the glycerol:ethanol vehicle only.” left out
as §3, §4

Another series relates to TNF-α. The experiment in a line: Serum TNF-α following UV exposure. It counts as in vivo, mouse. On the procedure: as §2, §3, §4
In series [1] the test system is human malignant glioma cells U87, A172 and U251. The experiment in a line: MTT cytotoxicity assays on U87, A172 and U251 cells (stated jointly). The series is classed as cell-based. On the procedure: J. of Immunological Methods 65: 55 63, 1983. […] Invasion inhibition may be studied by Boyden chambers.
Then U87, A172 and U251 cells were treated with dimethyl celecoxib bisPOH carbamate (POH-DMC) (e.g., synthesized by the method in Example 1), and the MTT cytotoxicity assays performed (FIG. 2).
Then TMZ-resistant glioma cell lines U87, A172 and U251 cells were treated with temozolomide POH carbamate (POH-TMZ) (e.g., synthesized by the method in Example 3).
For orientation: Formazan colour is commonly taken as a measure of viable cells.

Series [2] deals with TMZ sensitive (U251) cells. The experiment in a line: Colony forming assay, TMZ sensitive U251 cells. The series is classed as cell-based, human. Conditions: TMZ sensitive U251 cells. The protocol:
(§5) Colony forming assays were carried out after cells were treated with TMZ alone, POH alone, and the TMZ-POH conjugate. […] Cancer Lett. 2011 Mar. 28; 302(2):100-8.

The test system of series [3] is TMZ resistant (U251TR) U251 cells. The experiment in a line: Colony forming assay, TMZ resistant U251TR cells. The series is classed as cell-based, human. The protocol: as §5
In series [4] the test system is USC-04 glioma cancer stem cells. The experiment in a line: MTT cytotoxicity assay, USC-04 glioma cancer stem cells. It counts as cell-based. Conditions: USC-04; increasing concentrations (TMZ 0-400 uM; POH 0-2 mM). The source says:
(§6) Cancer Lett. 2011 Mar. 28; 302(2):100-8.

Series [5] concerns USC-02 glioma cancer stem cells. The experiment in a line: MTT cytotoxicity assay, USC-02 glioma cancer stem cells. The series is classed as cell-based. Conditions: USC-02; increasing concentrations (TMZ 0-400 uM; POH 0-2 mM).
Excerpt: as §6

The subject of the next series is A172 human glioma cells. The experiment in a line: MTT cytotoxicity assay, A172 cells. It counts as cell-based. Conditions: Homo sapiens, A-172 cells, 48 hours. The source says:
(§7) In vitro efficacy of the present composition can be determined using methods well known in the art. For example, the cytotoxicity of the present monoterpene (or sesquiterpene) and/or the therapeutic agents may be studied by MTT [3-(4,5-dimethylthiazol-2-yl)-2,5-diphenyl tetrazolium bromide] cytotoxicity assay. MTT assay is based on the principle of uptake of MTT, a tetrazolium salt, by metabolically active cells where it is metabolized into a blue colored formazan product, which can be read spectrometrically. J. of Immunological Methods 65: 55 63, 1983. The cytotoxicity of the present monoterpene (or sesquiterpene) derivative and/or the therapeutic agents may be studied by colony formation assay. Functional assays for inhibition of VEGF secretion and IL-8 secretion may be performed via ELISA. Cell cycle block by the present monoterpene (or sesquiterpene) derivative and/or the therapeutic agents may be studied by standard propidium iodide (PI) staining and flow cytometry. Invasion inhibition may be studied by Boyden chambers. In this assay a layer of reconstituted basement membrane, Matrigel, is coated onto chemotaxis filters and acts as a barrier to the migration of cells in the Boyden chambers. Only cells with invasive capacity can cross the Matrigel barrier. Other assays include, but are not limited to cell viability assays, apoptosis assays, and morphological assays. […]

A further series has as its system U87 human glioma cells. The experiment in a line: MTT cytotoxicity assay, U87 cells. To be noted: Homo sapiens, U-87 MG, U-87 cells, 48 hours. It counts as cell-based.
Excerpt: as §7

The next series concerns U251 human glioma cells. The experiment in a line: MTT cytotoxicity assay, U251 cells. The source says:
(§8) In vitro efficacy of the present composition can be determined using methods well known in the art. For example, the cytotoxicity of the present monoterpene (or sesquiterpene) and/or the therapeutic agents may be studied by MTT [3-(4,5-dimethylthiazol-2-yl)-2,5-diphenyl tetrazolium bromide] cytotoxicity assay. MTT assay is based on the principle of uptake of MTT, a tetrazolium salt, by metabolically active cells where it is metabolized into a blue colored formazan product, which can be read spectrometrically. J. of Immunological Methods 65: 55 63, 1983. The cytotoxicity of the present monoterpene (or sesquiterpene) derivative and/or the therapeutic agents may be studied by colony formation assay. Functional assays for inhibition of VEGF secretion and IL-8 secretion may be performed via ELISA. Cell cycle block by the present monoterpene (or sesquiterpene) derivative and/or the therapeutic agents may be studied by standard propidium iodide (PI) staining and flow cytometry. Invasion inhibition may be studied by Boyden chambers. In this assay a layer of reconstituted basement membrane, Matrigel, is coated onto chemotaxis filters and acts as a barrier to the migration of cells in the Boyden chambers. Only cells with invasive capacity can cross the Matrigel barrier. Other assays include, but are not limited to cell viability assays, apoptosis assays, and morphological assays.
(§9) To compare the cytotoxicity of Rolipram POH Carbamate (POH-Rolipram) (e.g., synthesized by the method in Example 5) with rolipram, […] inducing differentiation and apoptosis in glioma cells, A172, U87, U251 and LN229 human glioma cells were treated with either POH-Rolipram or rolipram for 48 hours.
MTT cytotoxicity assays were carried out after cells were treated with the TMZ-POH conjugate. The MTT cytotoxicity assays were carried out as described in Chen T C, et al. Green tea epigallocatechin gallate enhances therapeutic efficacy of temozolomide in orthotopic mouse glioblastoma models. Cancer Lett. 2011 Mar. 28; 302(2):100-8.

In the next series the test system is LN229 human glioma cells. The experiment in a line: cells. To be noted: Homo sapiens, LN-229, 48 h.
Excerpt: as §8, §9

As to `CCCCC/C=C\C/C=C\CCCCCCCC(=O)O` [linoleic acid], the observable skin damage result in the series with UV-B exposed skin (3 weeks of UV-B exposure and treatment) is on record as “displayed damage”; with UV-B exposed skin (5 weeks of UV-B exposure and treatment) it was “displayed damage”. Besides, the “IL-1β serum levels increase” value in the series on IL-1β worked out at 8.3 ± 2.1 pg/mL. Also, the IL-6 levels in the series on IL-6 came to 18.3 ± 3.4 pg/mL. In the series with TNF-α, this compound displayed a TNF-α levels of 126.9 ± 14.6 pg/mL.
On to `Cn1nnc2c(C(N)=O)ncn2c1=O` [TMZ, temozolomide], for which, in [1], the “cytotoxicity / kill rates (MTT)” value is given as “minimal cytotoxicity”. The results for the “cytotoxicity (colony forming assay)” value in [2] and in series [3] were “demonstrated cytotoxicity” and “minimal cytotoxicity”, respectively. The “cytotoxicity (MTT)” value in [4] and in [5] was “did not induce significant cytotoxicity” throughout.
Consider `C=C(C)C1CC=C(COC(=O)N(C(=O)OCC2=CCC(C(=C)C)CC2)S(=O)(=O)c2ccc(-n3nc(C(F)(F)F)cc3-c3cc(C)ccc3C)cc2)CC1` (stereo not shown) [POH-DMC], for which the “cytotoxicity / kill rates (MTT)” value in series [1] is “much better cytotoxicity than DMC alone”.
In general, pIC50 refers to the IC50 on a negative log10 scale, so that one unit is a factor of ten. A higher pIC50 goes with a low IC50. As for `COc1ccc(C2CNC(=O)C2)cc1OC1CCCC1` (stereo not shown) [rolipram, reference compound], the pIC50 in the series on A172 human glioma cells was about 3.00; with U87 human glioma cells it was under 3.00; in the series on U251 human glioma cells (Homo sapiens, U-251, 48 h) it was 3.77; with LN229 human glioma cells it was under 4.00. Also, the plateau cytotoxicity with U251 human glioma cells is 60%.
